The NIST ThermoML archive (doi:10.1016/j.fluid.2013.10.033)
± gives the expanded uncertainty stated by the source.

Assays:
[1] = refractive index (Na D-line) (dimensionless); details: 298.15 K; 101.33 kPa; Liquid; Standard Abbe refractometry
[2] = 298.15 K; 101.33 kPa; Liquid; Vibrating tube method
[3] = xn = mol fraction of the nth substance listed; details: 298.15 K, 101 kPa, Liquid, Vibrating tube method

| Structure (SMILES) | refractive index [1] | mass density [2] | also measured |
| --- | --- | --- | --- |
| CCOS(=O)(=O)[O-].CC[n+]1ccccc1 [1-ethylpyridinium ethyl sulfate] + C1=CCCCC1 | – | – | mass density ([3]; x2 = 0.041): 1243.4 ± 1.8 kg/m3 |
| CCOS(=O)(=O)[O-].CC[n+]1ccccc1 [1-ethylpyridinium ethyl sulfate] + CC1CCCCC1 | – | – | mass density ([3]; x2 = 0.013): 1248.79 ± 1.7 kg/m3 |
| CCOS(=O)(=O)[O-].CC[n+]1ccccc1 [1-ethylpyridinium ethyl sulfate] + C1CCCCCCC1 | – | – | mass density ([3]; x2 = 0.009): 1249.15 ± 1.2 kg/m3 |
| CCOS(=O)(=O)[O-].CC[n+]1ccccc1 [1-ethylpyridinium ethyl sulfate] | 1.50525 ± 0.0007 | 1252 ± 0.4 kg/m3 | – |
| CCOS(=O)(=O)[O-].CC[n+]1ccccc1 [1-ethylpyridinium ethyl sulfate] + C1CCCCC1 | – | – | mass density ([3]; x2 = 0.017): 1247.74 ± 1.8 kg/m3 |
| CCOS(=O)(=O)[O-].CC[n+]1ccccc1 [1-ethylpyridinium ethyl sulfate] + c1ccccc1 | – | – | mass density ([3]; x2 = 0.406): 1171.69 ± 1.6 kg/m3 |
| c1ccccc1 [benzene] | 1.49774 ± 0.00068 | 873.57 ± 0.11 kg/m3 | – |

Further lines, with some results ahead:

| refractive index [1] | mass density [2] | Structure (SMILES) | also measured |
| --- | --- | --- | --- |
| 1.42062 ± 0.0007 | 765.02 ± 0.24 kg/m3 | CC1CCCCC1 [methylcyclohexane] | – |
| 1.44378 ± 0.0007 | 805.69 ± 0.24 kg/m3 | C1=CCCCC1 [cyclohexene] | – |
| 1.45598 ± 0.00068 | 831.47 ± 0.12 kg/m3 | C1CCCCCCC1 [cyclooctane] | – |
| 1.4236 ± 0.00068 | 773.8 ± 0.13 kg/m3 | C1CCCCC1 [cyclohexane] | – |
